What was measured:
[1] = tested on: Enterococcus faecium EFM0101 (VRE, MDR); assay: Broad spectrum MIC, Table 17/18 column A; format: cell-based; conditions: condition A of Table 17, in µg/mL
In short: (§1)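 Broth microdilution MIC per NCCLS M7-A6, modified to use doubling serial dilutions of compound. Media conditions varied per column.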

[2] = tested on: Enterococcus faecalis EFS0004 (VSE); assay: Broad spectrum MIC, Table 17/18 B, C, D (CAMHB; + 0.625 mM calcium; + calcium and 30% bovine serum); format: cell-based; conditions: in µg/mL; for MIC, media condition B: condition B: CAMHB; for MIC, media condition C: condition C: + 0.625 mM calcium; for MIC, media condition D: condition D: + calcium and 30% bovine serum
In short: as §1

[3] = tested on: Staphylococcus aureus SAU0017 (MSSA); assay: Broad spectrum MIC, Table 17/18 columns E, F (+ 0.625 mM calcium; + calcium and 30% bovine serum); format: cell-based; conditions: in µg/mL; for MIC, media condition E: condition E: + 0.625 mM calcium; for MIC, media condition F: condition F: + calcium and 30% bovine serum
In short: as §1

[4] = tested on: Staphylococcus aureus SAU0031 (VISA); assay: Broad spectrum MIC, Table 17/18 column G; format: cell-based; conditions: condition G of Table 17, in µg/mL
In short: as §1

[5] = tested on: Staphylococcus aureus SAU0065 (MRSA); assay: Broad spectrum MIC, Table 17/18 column H; format: cell-based; conditions: condition H of Table 17, in µg/mL
In short: as §1

[6] = tested on: Staphylococcus epidermidis SEP0375 (MRSE); assay: Broad spectrum MIC, Table 17/18 column I; format: cell-based; conditions: condition I of Table 17, in µg/mL
In short: as §1

[7] = tested on: Streptococcus pneumoniae SPN0002 (PISP); assay: Broad spectrum MIC, Table 17/18 column J; format: cell-based; conditions: condition J of Table 17, in µg/mL
In short: as §1

[8] = tested on: Streptococcus pneumoniae SPN0023 (PRSP); assay: Broad spectrum MIC, Table 17/18 column K; format: cell-based; conditions: condition K of Table 17, in µg/mL
In short: as §1

[9] = tested on: Streptococcus pneumoniae SPN0032 (PSSP); assay: Broad spectrum MIC, Table 17/18 column L; format: cell-based; conditions: condition L of Table 17, in µg/mL
In short: as §1

[10] = tested on: Streptococcus pyogenes SPY0001 (PenS); assay: Broad spectrum MIC, Table 17/18 column M; format: cell-based; conditions: condition M of Table 17, in µg/mL
In short: as §1

[11] = In vivo half-life after single i.v. administration, mice; conditions: female, Swiss CD1, mouse, plasma, iv, 10 mg/kg
Method: Yet other exemplary in vivo models can be used to characterize the pharmacokinetics and pharmacodynamic parameters of antimicrobial compounds of this disclosure. Some parameters that can be measured include an in vivo half-life of a compound, elimination rate and clearance, volume of distribution, and bioavailability. For example, briefly, compounds can be administered as a single i.v. or oral (p.o.) dose in mice or rats. At various time points (ranging from 1 minute to 72 hours), blood from treated animals is collected and the concentration of lipopeptide derivative in the ex vivo plasma can be quantified by, for example, liquid chromatography with mass spectrometric detection (LC/MS). After quantification, pharmacokinetics parameters can be calculated using methods known in the art, such as a one compartment model with mono-exponential decay and linear regression analysis (see, e.g., Fantin et al., Antimicrob. Agents Chemotherap. 35: 1413. 1991).
A pharmacokinetic parameter that can be measured, and which aids in determining efficacy, after a single i.v. administration of an antimicrobial lipopeptide derivative of the instant disclosure is the systemic half-life of the compound. Briefly, test compounds were dissolved in a 5% mannitol solution (pH was then adjusted) to a concentration of 1 mg/mL (w/v). A single intravenous injection in the lateral caudal vein of Swiss CD1 mice (5 to 6 weeks old, female) or Sprague Dawley rats (male) was used to administer the lipopeptide derivative at a final dose of 10 mg/kg. At various time points (ranging from about 4 minutes to about 24 hours for mice, and 48 or 72 hours for rats) mice were sacrificed and blood was harvested. The concentration of lipopeptide derivative in ex vivo plasma was quantified using liquid chromatography (LC) with mass spectrometric detection (MS).

[12] = tested on: S. aureus Smith (SAU0017, ATCC 19636); assay: Intraperitoneal murine model of protection against infection (ED50, Table 21); format: in vivo, Staphylococcus aureus; conditions: Swiss CD1 mice infected i.p., compound i.v.

SMILES	MIC, media condition A [1]	MIC, media condition B [2]	MIC, media condition C [2]	MIC, media condition D [2]	MIC, media condition E [3]	MIC, media condition F [3]	MIC, media condition G [4]	MIC, media condition H [5]	MIC, media condition I [6]	MIC, media condition J [7]	MIC, media condition K [8]	MIC, media condition L [9]	MIC, media condition M [10]	half-life [11]	ED50 in Mice, S. aureus (SAU0017) [12]
CCCCCCCCCCCCCCC(=O)NC(CC(=O)O)C(=O)NC1C(=O)N2CCCCC2C(=O)NC(C(C)C(=O)O)C(=O)NC(CC(=O)O)C(=O)NCC(=O)NC(CC(=O)O)C(=O)NCC(=O)NC(C(C)NC(=O)CNC(=O)[C@@H](N)CCCCN)C(=O)NC(C(C)C)C(=O)N2CCCC2C(=O)NC1C (stereo partly drawn) [Compound 4, C15-Amphomycin-9-Gly-Lys]	1	1-4	1-2	>64	0.5-1	4	8	1-4	1-2	0.25	0.25	0.25-0.5	0.25	0.752 h	6.2 mg/kg
CCCCCCCCCCCCCCC(=O)NC(CC(=O)O)C(=O)NC1C(=O)N2CCCCC2C(=O)NC(C(C)C(=O)O)C(=O)NC(CC(=O)O)C(=O)NCC(=O)NC(CC(=O)O)C(=O)NCC(=O)NC(C(C)NC(=O)CCN)C(=O)NC(C(C)C)C(=O)N2CCCC2C(=O)NC1C (stereo not drawn) [Compound 147, C15-Amphomycin-9-(β-Ala)]	0.5-1	2	0.5-1	32	0.25-0.5	2	2	1	0.5-1	0.125	0.125	0.125	0.125	8.02 h	6.5 mg/kg
CCCCCCCCCCCCCCC(=O)NC(CC(=O)O)C(=O)NC1C(=O)N2CCCCC2C(=O)NC(C(C)C(=O)O)C(=O)NC(CC(=O)O)C(=O)NCC(=O)NC(CC(=O)O)C(=O)NCC(=O)NC(C(C)NC(=O)CN(C)C(=O)[C@@H](N)CCCCN)C(=O)NC(C(C)C)C(=O)N2CCCC2C(=O)NC1C (stereo partly drawn) [Compound 199, C15-Amphomycin-9-Sar-Lys]	0.5-1	1-2	1-2	64	0.25-1	4-8	4-8	1-2	0.5-1	0.25	0.25	0.25-0.5	0.25	6.18 h	8 mg/kg

From patent publication US7868135B2, “Compositions of lipopeptide antibiotic derivatives and methods of use thereof” (priority 2003, dated 2011)
